Assay [1] addresses T1, Fruit fly DNA polymerase δ (Drosophila melanogaster, UniProt P54358).
T1 construct: made in house
Nature of the assay: DNA polymerase activity assay, fruit fly pol δ. In kind it is biochemical. The settings on record: insect pol; read-out: IC50 Value of MK-2, Fruit fly DNA polymerase δ. As to the method: (§1) Pols from mammals, a fish (cherry salmon), an insect (fruit fly) and a plant (cauliflower) were purified, and prokaryotic pols and other DNA metabolic enzymes, such as T7 RNA polymerase, T4 polynucleotide kinase and bovine deoxyribonuclease I, were purchased as described in our previous report. The activities of all pols and other DNA metabolic enzymes were measured as described in previous reports.
(§2) The components of the pol assay were poly(dA)/oligo(dT)18 and dTTP as the DNA template-primer and 2′-deoxyribonucleoside 5′-triphosphate (dNTP) substrate, respectively. VK2, VK3, and their synthesized derivatives (i.e., MK-3, MK-2 and MK-1) were dissolved in dimethyl sulfoxide (DMSO) at various concentrations and sonicated for 30 s. The sonicated samples (4 μL) were mixed with 16 μL of each pol enzyme (final amount, 0.05 units) in 50 mM Tris-HCl (pH 7.5) containing 1 mM dithiothreitol, 50% glycerol and 0.1 mM EDTA, and kept at 0 °C for 10 min. […] Activity without the inhibitor was considered to be 100%, and the activity remaining at each concentration of inhibitor was determined relative to this value. […]

The target in assay [2] is B-family pols (mammalian). Put plainly: DNA polymerase activity assay, mammalian B-family pols. It is filed as biochemical, mammals. The settings on record: range over mammalian B-family pols α, δ, ɛ; read-out: 50% inhibition of the B family of pols. How it is done:
as §1, §2

For assay [3], the target named is Cauliflower DNA polymerase α (Brassica oleracea var. botrytis, UniProt A0A0D3D890). Put plainly: DNA polymerase activity assay, cauliflower pol α. The settings on record: plant pol; read-out: IC50 Value of MK-2, Cauliflower DNA polymerase α. In kind it is biochemical. How it is done:
as §1, §2

Assay [4] deals with X-family pols (mammalian). Put plainly: DNA polymerase activity assay, mammalian X-family pols. It is filed as biochemical, mammals. The settings on record: range over mammalian X-family pols β, λ, TdT; read-out: 50% inhibition of the X family of pols. As to the method: as §1, §2
Another assay deals with T2, E. coli DNA polymerase I (Escherichia coli, UniProt P00582).
T2 construct: purchased
Put plainly: DNA polymerase activity assay, E. coli pol I. It is filed as biochemical. The settings on record: prokaryotic pol; read-out: IC50 Value of MK-2, E. coli DNA polymerase I. How it is done: as §1, §2

Another assay has as its target T3, Human DNA polymerase ɛ (Homo sapiens, UniProt Q07864).
T3 construct: made in house
Nature of the assay: DNA polymerase activity assay, human pol ɛ. It is filed as biochemical. The note with it: B-family pol; read-out: IC50 Value of MK-2, Human DNA polymerase ɛ. As to the method:
as §1, §2

For assay [5], the target named is Y-family pols (mammalian). Nature of the assay: DNA polymerase activity assay, mammalian Y-family pols. In kind it is biochemical, mammals. The settings on record: range over mammalian Y-family pols η, ι, κ; read-out: 50% inhibition of the Y family of pols. How it is done: as §1, §2
Another assay has as its target T4, Human DNA polymerase δ (Homo sapiens, UniProt P28340).
T4 construct: made in house
Put plainly: DNA polymerase activity assay, human pol δ. In kind it is biochemical. The note with it: B-family pol; read-out: IC50 Value of MK-2, Human DNA polymerase δ. How it is done:
as §1, §2

The next assay addresses T5, Taq DNA polymerase (Thermus aquaticus, UniProt P19821).
T5 construct: purchased
Put plainly: DNA polymerase activity assay, Taq pol. It is filed as biochemical. The settings on record: prokaryotic pol; incubated at 74 °C; read-out: IC50 Value of MK-2, Taq DNA polymerase. As to the method: as §1, §2

The test system of assay [6] is nuclear translocation of NF-κB p65 in RAW264.7 cells. Nature of the assay: LPS-induced nuclear translocation of NF-κB p65 (Western blot). It is filed as cell-based, mouse. The note with it: 10 μM MK-2 30 min, then 100 ng/mL LPS 30 min, LPS alone 4.47-fold. As to the method: RAW264.7 cells on a 6-well plate at 5 × 10^5 cells/well were incubated with 10 μM of MK-2 or DMSO (1 μL/mL) as a vehicle control for 30 min, followed by treatment with 100 ng/mL of LPS for 30 min. After treatment, cells were harvested with lysis buffer consisting of 10 mM Hepes (pH 7.9), 10 mM KCl, 1.5 mM MgCl2 and 0.5 mM DTT containing protease inhibitors (1 mM phenylmethylsulfonyl fluoride [PMSF], 5 μg/mL of leupeptin and 5 μg/mL of aprotinin) and phosphatase inhibitors (10 mM NaF and 1 mM Na3VO4) and stood on ice for 15 min with occasional mixing. The mixture was centrifuged at 1000 × g for 10 min at 4 °C. […] The protein concentration was measured by using a bicinchoninic acid (BCA) assay kit in accordance with the manufacturer’s protocol. […]
The nuclear proteins (30–50 μg of protein) were boiled in a quarter-volume of sample buffer (1 M Tris-HCl [pH 7.5], 640 mM 2-mercaptoethanol, 0.2% bromphenol blue, 4% SDS and 20% glycerol) and then separated on 10% SDS polyacrylamide gels. […] The protein-antibody complex was visualized with ChemiLumiONE (Nacalai Tesque, Kyoto, Japan) and detected using an Image Reader (LAS-3000 Imaging System, Fuji Photo Film, Tokyo, Japan). The intensity of each band was analyzed using ImageJ, which was developed at the National Institute of Health.

The next assay deals with T6, Mouse DNA polymerase ι (Mus musculus, UniProt Q6R3M4).
T6 construct: made in house
Put plainly: DNA polymerase activity assay, mouse pol ι. It is filed as biochemical. The settings on record: Y-family pol; read-out: IC50 Value of MK-2, Mouse DNA polymerase ι. As to the method: as §1, §2

In another assay the target is T7, Human DNA polymerase η (Homo sapiens, UniProt Q9Y253).
T7 construct: made in house
T7 sequence (Q9Y253 1-511 limits assumed): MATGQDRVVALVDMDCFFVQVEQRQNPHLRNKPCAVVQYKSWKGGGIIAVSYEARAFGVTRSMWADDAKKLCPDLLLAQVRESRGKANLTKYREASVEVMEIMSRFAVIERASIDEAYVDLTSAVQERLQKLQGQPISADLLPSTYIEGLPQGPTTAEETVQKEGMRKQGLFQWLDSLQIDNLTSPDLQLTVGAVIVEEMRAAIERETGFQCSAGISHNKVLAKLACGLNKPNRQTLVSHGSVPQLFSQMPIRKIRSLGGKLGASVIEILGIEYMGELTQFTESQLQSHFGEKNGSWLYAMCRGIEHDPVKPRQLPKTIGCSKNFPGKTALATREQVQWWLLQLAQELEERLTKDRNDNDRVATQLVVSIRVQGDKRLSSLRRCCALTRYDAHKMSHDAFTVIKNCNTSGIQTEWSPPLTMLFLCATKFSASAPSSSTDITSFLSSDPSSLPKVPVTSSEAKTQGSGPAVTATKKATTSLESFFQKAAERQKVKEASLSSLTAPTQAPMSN
Put plainly: DNA polymerase activity assay, human pol η. It is filed as biochemical. The settings on record: Y-family pol; read-out: IC50 Value of MK-2, Human DNA polymerase η. As to the method: as §1, §2

T5 sequence (P19821 whole entry): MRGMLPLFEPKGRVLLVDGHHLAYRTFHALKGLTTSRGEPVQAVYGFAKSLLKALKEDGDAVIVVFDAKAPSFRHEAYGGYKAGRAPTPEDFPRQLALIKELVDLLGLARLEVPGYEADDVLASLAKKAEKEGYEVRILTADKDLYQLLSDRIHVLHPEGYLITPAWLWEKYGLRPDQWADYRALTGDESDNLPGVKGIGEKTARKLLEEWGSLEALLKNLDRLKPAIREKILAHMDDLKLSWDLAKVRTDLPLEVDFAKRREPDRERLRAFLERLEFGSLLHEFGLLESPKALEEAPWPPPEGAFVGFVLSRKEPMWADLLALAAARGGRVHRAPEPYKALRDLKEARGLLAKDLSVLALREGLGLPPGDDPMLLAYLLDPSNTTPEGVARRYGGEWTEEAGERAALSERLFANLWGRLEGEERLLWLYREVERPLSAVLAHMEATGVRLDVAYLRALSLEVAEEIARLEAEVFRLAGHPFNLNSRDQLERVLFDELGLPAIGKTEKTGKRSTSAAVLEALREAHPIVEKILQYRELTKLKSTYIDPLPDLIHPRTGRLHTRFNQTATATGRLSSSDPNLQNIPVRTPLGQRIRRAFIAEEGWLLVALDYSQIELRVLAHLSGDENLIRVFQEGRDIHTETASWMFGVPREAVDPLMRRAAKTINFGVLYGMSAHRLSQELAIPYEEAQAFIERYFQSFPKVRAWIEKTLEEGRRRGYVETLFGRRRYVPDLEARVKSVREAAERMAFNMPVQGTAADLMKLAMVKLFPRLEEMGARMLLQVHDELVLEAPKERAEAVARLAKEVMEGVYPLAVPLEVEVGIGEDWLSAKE
T3 sequence (Q07864 whole entry): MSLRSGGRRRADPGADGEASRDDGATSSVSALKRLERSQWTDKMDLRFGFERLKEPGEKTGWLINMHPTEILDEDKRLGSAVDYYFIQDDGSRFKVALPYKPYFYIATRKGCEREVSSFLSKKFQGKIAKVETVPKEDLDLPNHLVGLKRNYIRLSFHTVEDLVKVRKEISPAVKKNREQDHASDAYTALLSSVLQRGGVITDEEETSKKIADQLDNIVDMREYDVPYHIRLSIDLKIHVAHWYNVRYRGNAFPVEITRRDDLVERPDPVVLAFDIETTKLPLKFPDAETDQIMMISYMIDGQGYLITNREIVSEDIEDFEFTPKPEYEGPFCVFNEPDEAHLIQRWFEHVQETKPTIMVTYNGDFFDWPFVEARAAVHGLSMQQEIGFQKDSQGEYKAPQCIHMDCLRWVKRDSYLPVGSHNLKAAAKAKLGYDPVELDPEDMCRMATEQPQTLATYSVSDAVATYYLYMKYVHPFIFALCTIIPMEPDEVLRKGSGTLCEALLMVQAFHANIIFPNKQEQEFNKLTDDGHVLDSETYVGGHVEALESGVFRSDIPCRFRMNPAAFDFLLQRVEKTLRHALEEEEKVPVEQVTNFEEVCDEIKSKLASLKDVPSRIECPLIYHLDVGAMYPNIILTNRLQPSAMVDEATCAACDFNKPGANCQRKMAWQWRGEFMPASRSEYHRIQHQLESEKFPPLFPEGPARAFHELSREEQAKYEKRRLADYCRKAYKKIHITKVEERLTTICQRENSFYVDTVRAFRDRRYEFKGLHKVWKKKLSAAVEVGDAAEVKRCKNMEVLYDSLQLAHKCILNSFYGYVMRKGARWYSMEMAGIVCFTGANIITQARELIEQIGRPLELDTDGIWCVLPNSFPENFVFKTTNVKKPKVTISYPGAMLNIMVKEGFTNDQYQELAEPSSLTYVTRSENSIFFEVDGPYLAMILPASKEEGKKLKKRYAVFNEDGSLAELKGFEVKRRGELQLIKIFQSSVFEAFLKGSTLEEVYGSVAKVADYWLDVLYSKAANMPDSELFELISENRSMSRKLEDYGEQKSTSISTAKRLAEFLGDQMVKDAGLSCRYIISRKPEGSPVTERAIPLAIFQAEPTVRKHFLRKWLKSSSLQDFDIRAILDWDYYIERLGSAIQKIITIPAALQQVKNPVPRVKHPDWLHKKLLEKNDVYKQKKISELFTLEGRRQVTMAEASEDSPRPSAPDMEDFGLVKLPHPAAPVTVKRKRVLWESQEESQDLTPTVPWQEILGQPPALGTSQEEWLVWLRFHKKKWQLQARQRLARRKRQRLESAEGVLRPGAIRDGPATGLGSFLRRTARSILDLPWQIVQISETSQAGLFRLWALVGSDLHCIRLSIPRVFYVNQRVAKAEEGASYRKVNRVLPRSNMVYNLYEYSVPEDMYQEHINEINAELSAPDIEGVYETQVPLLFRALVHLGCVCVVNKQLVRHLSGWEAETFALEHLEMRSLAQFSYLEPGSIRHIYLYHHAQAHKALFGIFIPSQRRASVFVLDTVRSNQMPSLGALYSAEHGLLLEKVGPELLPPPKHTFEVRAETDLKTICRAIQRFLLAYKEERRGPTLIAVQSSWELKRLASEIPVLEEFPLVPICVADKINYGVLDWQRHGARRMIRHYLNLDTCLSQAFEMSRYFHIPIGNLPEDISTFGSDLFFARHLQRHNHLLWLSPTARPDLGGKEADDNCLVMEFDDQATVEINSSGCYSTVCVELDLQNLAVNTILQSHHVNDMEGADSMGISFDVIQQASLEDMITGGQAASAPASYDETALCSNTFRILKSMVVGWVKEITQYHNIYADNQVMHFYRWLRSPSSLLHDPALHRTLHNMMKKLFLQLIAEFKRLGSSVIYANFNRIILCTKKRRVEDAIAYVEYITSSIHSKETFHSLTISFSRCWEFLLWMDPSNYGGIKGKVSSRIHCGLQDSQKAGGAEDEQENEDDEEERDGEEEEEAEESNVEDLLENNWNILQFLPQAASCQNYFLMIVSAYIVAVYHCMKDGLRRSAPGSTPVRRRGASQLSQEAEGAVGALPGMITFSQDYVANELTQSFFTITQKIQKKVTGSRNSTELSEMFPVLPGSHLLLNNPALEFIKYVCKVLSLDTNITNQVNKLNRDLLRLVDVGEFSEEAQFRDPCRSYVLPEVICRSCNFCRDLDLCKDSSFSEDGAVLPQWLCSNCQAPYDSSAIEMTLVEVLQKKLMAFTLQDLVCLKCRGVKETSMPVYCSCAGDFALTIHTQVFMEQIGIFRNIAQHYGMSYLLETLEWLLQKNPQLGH
Sequence of Cauliflower DNA polymerase α (A0A0D3D890 entry or part of it): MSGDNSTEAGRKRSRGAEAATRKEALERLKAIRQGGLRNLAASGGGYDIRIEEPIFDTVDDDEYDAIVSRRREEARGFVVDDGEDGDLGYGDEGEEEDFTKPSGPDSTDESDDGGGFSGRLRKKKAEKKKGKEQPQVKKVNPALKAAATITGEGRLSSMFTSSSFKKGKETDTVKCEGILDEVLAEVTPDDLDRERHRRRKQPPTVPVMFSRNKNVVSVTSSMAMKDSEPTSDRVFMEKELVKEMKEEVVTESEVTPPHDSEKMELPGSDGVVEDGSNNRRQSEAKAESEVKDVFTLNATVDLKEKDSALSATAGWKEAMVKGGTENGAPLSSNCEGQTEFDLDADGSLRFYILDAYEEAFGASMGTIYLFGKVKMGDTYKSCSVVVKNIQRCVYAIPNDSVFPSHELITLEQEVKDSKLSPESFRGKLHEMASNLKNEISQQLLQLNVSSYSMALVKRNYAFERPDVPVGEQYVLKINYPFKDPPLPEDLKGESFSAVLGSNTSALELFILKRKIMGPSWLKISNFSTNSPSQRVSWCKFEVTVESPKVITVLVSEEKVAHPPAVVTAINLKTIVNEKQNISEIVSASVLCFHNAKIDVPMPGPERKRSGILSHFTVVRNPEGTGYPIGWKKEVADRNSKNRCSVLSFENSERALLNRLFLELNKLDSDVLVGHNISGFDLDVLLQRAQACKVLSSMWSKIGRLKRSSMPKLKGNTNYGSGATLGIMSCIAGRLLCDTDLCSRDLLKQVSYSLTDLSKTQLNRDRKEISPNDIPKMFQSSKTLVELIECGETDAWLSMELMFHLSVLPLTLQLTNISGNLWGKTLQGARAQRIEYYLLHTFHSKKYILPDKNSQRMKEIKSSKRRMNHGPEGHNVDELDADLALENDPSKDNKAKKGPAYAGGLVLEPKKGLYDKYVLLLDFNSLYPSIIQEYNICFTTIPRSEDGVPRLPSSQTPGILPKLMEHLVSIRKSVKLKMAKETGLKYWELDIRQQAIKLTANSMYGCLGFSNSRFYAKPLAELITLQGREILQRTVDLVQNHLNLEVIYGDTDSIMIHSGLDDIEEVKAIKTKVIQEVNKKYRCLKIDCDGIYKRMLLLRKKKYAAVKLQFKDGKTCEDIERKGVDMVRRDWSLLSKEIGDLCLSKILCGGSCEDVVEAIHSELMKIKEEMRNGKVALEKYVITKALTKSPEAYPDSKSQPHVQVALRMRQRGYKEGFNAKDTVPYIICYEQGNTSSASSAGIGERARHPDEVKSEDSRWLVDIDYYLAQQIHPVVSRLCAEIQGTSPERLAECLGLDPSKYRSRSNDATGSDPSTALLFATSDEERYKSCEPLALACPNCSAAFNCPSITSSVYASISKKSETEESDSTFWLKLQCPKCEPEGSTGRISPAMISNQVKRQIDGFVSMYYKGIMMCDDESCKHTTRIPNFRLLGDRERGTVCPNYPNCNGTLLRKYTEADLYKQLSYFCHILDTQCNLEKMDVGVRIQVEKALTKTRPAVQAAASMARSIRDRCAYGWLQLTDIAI

Regarding `CC(C)=CCC/C(C)=C/CC1=C(C)C(=O)c2ccccc2C1=O` [MK-2], the IC50 in [1] was 36.9 ± 2.2 µM; in assay [2], 27.6 to 29.1 µM; in assay [3], above 200 µM; in assay [4], 24.6 to 31 µM; at E. coli DNA polymerase I it was above 200 µM; at Human DNA polymerase ɛ, 28.2 ± 1.6 µM. For the same molecule, the IC50 in [5] is 35.3 to 39 µM; at Human DNA polymerase δ it was 29.1 ± 1.8 µM; on Taq DNA polymerase it was above 200 µM; at Mouse DNA polymerase ι, 39 ± 2.3 µM; on Human DNA polymerase η, 37.8 ± 2.2 µM. In addition, in assay [6], the “LPS-stimulated nuclear translocation of NF-κB p65 relative to treatment without LPS” value came to 2.04 fold.
